# Source: patent US8524978B2, “Composition for production of plant body having improved sugar content, and use thereof” (Japan Science and Technology Agency, priority 2007, dated 2013)
# “Also recorded” adds a separate entry of the source.
# Columns and labels:
# Type in all cases: in vivo
# Lycopersicum esculentum = test: Sugar content determination of Lycopersicum esculentum fruit with refractometer (Example 2); details: 0.5 mM applied as in Example 1; compared to Cont and Cont2 Sunny conditions; ANOVA 5%
# Text: Cultivated were Lycopersicum esculentum plants to which GSSG or GSH was applied by the method described in Example 1. Then, obtained fruit of the plants was subjected to sugar content determination using “Pocket” Refractometer APAL-1 (ATAGO CO., LTD.).
# For comparison, Lycopersicum esculentum plants were cultivated under two types of conditions (referred to as “Cont” and “Cont2 Sunny”). In the Cont condition, Lycopersicum esculentum plants were cultivated by the same method as in Example 1, except that GSSG and GSH were not applied. In the Cont2 Sunny condition, a Lycopersicum esculentum plant was not applied with GSSG or GSH and was independently cultivated at a site sufficiently irradiated with sunlight so that illuminance on the Lycopersicum esculentum plant becomes 100%. In the Cont condition and a condition in which GSSG or GSH was applied, the plants were planted at intervals of 40 cm to 50 cm. In this case, a plant may intercept light irradiating another plant. Therefore, illuminance on such plants becomes less than 100%.
# In the condition in which GSSG was applied, the condition in which GSH is applied, and the Cont condition, three Lycopersicum esculentum plants were cultivated, respectively. In the Cont2 Sunny condition, one Lycopersicum esculentum plant was cultivated. […]
# [1] = test system: Zea mays L. var. saccharata Sturt; test: Cultivation of Zea mays L. var. saccharata Sturt with GSSG, sensory test (Example 3); details: 50 mL of 0.2 mM, 4 times at root and 4 times sprayed to leaves
# Text: In the present example, Zea mays L. var. saccharata Sturt was cultivated. First, a Zea mays L. var. saccharata Sturt seed (TAKII & CO. Ltd., product number: Canberra 90) was sown in vermiculite (ASAHI INDUSTRIES Co., LTD.). Two weeks after sowing, a Zea mays L. var. saccharata Sturt plant was transplanted to a hydroponic culture pot described in Example 1. To the plant, 3 g of Kumiai phosphorate ammonium nitrate potassium S-604 (Chisso Asahi Fertilizer Co., Ltd.) was applied as an additional fertilizer 4 weeks and 6 weeks after the sowing.
# Within 2 weeks from the 5th week after the sowing, 50 mL of 0.2 mM GSSG was applied 4 times at a root of the plant. Within 2 weeks from the 7th week after the sowing, 50 mL of 0.2 mM GSSG was sprayed 4 times to leaves of the plant. For comparison, a Zea mays L. var. saccharata Sturt plant was cultivated by the same method as in the present example, except that GSSG was not applied, and fruit thereof was harvested.
# Fruit was harvested 90 days after the sowing and subjected to a sensory test of sugar content. As a result, it was determined that fruit of the plant applied with GSSG increased in sugar content compared to that of the plant applied with no GSSG. Further, it was determined that the plant applied with GSSG increased in size and number of fruit.
# [2] = test system: Vitis labrusca (Delaware); test: Cultivation of Vitis labrusca with GSSG or GSH, sensory test (Example 5)
# Description: In the present invention, Vitis labrusca was cultivated. Specifically, immediately after flowering of a Vitis labrusca (Delaware) plant, a mixed solution of 1 mM gibberellin (GA3) and 1 mM of an agent was applied to anthotaxy of the plant. The agent was GSSG or GSH. Then, the plant was coated with the agent and thereafter produced fruit was harvested. For comparison, a Vitis labrusca plant was cultivated in the same way, except that GA3, but not GSSG or GSH, was applied, and fruit thereof was harvested and subjected to a sensory test described below.
# The fruit harvested was subjected to a sensory test of sugar content. As a result, it was determined that fruit of the plant applied with GA3 and GSSG or GSH increased in sugar content compared to that of the plant applied with only GA3. Further, it was determined that the plant applied with GSSG and GA3 increased in size of fruit.
# Prunus avium (Napoleon) = test: Prunus avium leaf coating with GSSG, sensory test of fruit (Example 8); details: leaf surface coated with 0.5 mM 4 weeks and 3 weeks before harvest
# Description: In the present example, Prunus avium was cultivated. Specifically, 4 weeks and 3 weeks before an expected date of harvesting Prunus avium (Napoleon) fruit, a surface of a leaf on a branch having the fruit to be harvested was coated with 0.5 mM GSSG. The fruit was harvested on the expected date.
# Next, the fruit harvested was subjected to a sensory test of sugar content. As a result, it was determined that the fruit applied with GSSG increased in sugar content and decreased in acidity. Further, it was determined that the fruit applied with GSSG increased in weight. Furthermore, the fruit obtained was subjected to sugar content determination using “Pocket” Refractometer APAL-1 (ATAGO CO., LTD.). For comparison, fruit applied with no GSSG was also subjected to the sugar content determination. […] In FIG. 5, the vertical scale indicates sugar content (Brix, unit: %).
# Citrus unshiu = test: Sugar content determination of Citrus unshiu fruit with refractometer (Example 9); details: leaf surface coated with 0.5 mM one week before harvest; vs no GSSG; ANOVA 5%
# Description: In the present example, Citrus unshiu was cultivated. Specifically, one week before an expected date of harvesting Citrus unshiu fruit, a surface of a leaf on a branch having the fruit to be harvested was coated with 0.5 mM GSSG. The fruit was harvested on the expected date.
# Next, the fruit harvested was subjected to a sensory test of sugar content. As a result, it was determined that the fruit applied with GSSG increased in sugar content and decreased in acidity. Further, it was determined that the fruit applied with GSSG increased in weight. Furthermore, the fruit obtained was subjected to sugar content determination using “Pocket” Refractometer APAL-1 (ATAGO CO., LTD.). For comparison, fruit applied with no GSSG was also subjected to the sugar content determination. […] In FIG. 6, the vertical scale indicates sugar content (Brix, unit: %).
substance,measurement,setting,value
oxidized glutathione [GSSG],sugar content of fruit (Brix),Lycopersicum esculentum,significantly increased; also recorded: extremely high sugar content
same,number of fruit,[1],increased
same,size of fruit,[1],increased
same,sugar content of fruit (sensory test),"[1]; harvest 90 days after sowing, vs no GSSG",increased
same,size of fruit,"[2]; 1 mM agent mixed with 1 mM GA3, applied to anthotaxy",increased
same,sugar content of fruit (sensory test),"[2]; 1 mM agent mixed with 1 mM gibberellin (GA3), applied to anthotaxy, compared to plant applied with only GA3",increased
same,sugar content,[2]; applied without GA3,increased
same,acidity of fruit (sensory test),Prunus avium (Napoleon),decreased
same,sugar content of fruit (sensory test),Prunus avium (Napoleon),increased
same,weight of fruit,Prunus avium (Napoleon),increased
same,sugar content of fruit (Brix),Citrus unshiu,significantly improved
